Experiments:
[1] = Anti-platelet activity in rabbit platelet-rich plasma assessed as inhibition of ADP-induced platelet aggregation at 100 uM incubated for 5 mins at 37 degC by aggregometry; format: functional; details: Oryctolagus cuniculus
[2] = Anti-platelet activity in rabbit platelet-rich plasma assessed as inhibition of ADP-induced platelet aggregation at 50 uM incubated for 5 mins at 37 degC by aggregometry; format: functional; details: Oryctolagus cuniculus
[3] = Anti-platelet activity in rabbit platelet-rich plasma assessed as inhibition of ADP-induced platelet aggregation at 25 uM incubated for 5 mins at 37 degC by aggregometry; format: functional; details: Oryctolagus cuniculus
[4] = Anti-platelet activity in rabbit platelet-rich plasma assessed as inhibition of ADP-induced platelet aggregation at 12.5 uM incubated for 5 mins at 37 degC by aggregometry; format: functional; details: Oryctolagus cuniculus
[5] = Anti-platelet activity in rabbit platelet-rich plasma assessed as inhibition of ADP-induced platelet aggregation incubated for 5 mins at 37 degC by aggregometry; format: functional; details: Oryctolagus cuniculus
[6] = Cytoprotective activity against H2O2-induced cytotoxicity in human EAhy926 cells at 100 uM pre-incubated for 24 hrs before H2O2 challenge for 12 hrs by MTT assay; format: functional, EA.hy 926
[7] = Cytoprotective activity against H2O2-induced cytotoxicity in human EAhy926 cells at 50 uM pre-incubated for 24 hrs before H2O2 challenge for 12 hrs by MTT assay; format: functional, EA.hy 926
[8] = Cytoprotective activity against H2O2-induced cytotoxicity in human EAhy926 cells at 25 uM pre-incubated for 24 hrs before H2O2 challenge for 12 hrs by MTT assay; format: functional, EA.hy 926
[9] = Cytoprotective activity against H2O2-induced cytotoxicity in human EAhy926 cells at 12.5 uM pre-incubated for 24 hrs before H2O2 challenge for 12 hrs by MTT assay; format: functional, EA.hy 926
[10] = Cytoprotective activity against H2O2-induced cytotoxicity in human EAhy926 cells pre-incubated for 24 hrs before H2O2 challenge for 12 hrs by MTT assay; format: functional, cell-based; details: EA.hy 926
[11] = Potency index, ratio of EC50 for lipoic acid to EC50 for test compound for cytoprotective activity against H2O2-induced cytotoxicity in human EAhy926 cells pre-incubated for 24 hrs before H2O2 challenge for 12 hrs by MTT assay; format: functional

| IC50 [5] | SMILES | inhibition at 100 µM [1] | inhibition at 50 µM [2] | inhibition at 25 µM [3] | inhibition at 12.5 µM [4] | Activity [6] | Activity [7] | Activity [8] | Activity [9] | EC50 [10] | Ratio EC50 [11] |
| --- | --- | --- | --- | --- | --- | --- | --- | --- | --- | --- | --- |
| 77.4 µM | CCOC(=O)/C=C/c1ccc(OC(=O)c2nc(C)c(C)nc2C)c(O)c1 | 58.4% | 37.9% | 36.4% | 22% | 375.3% | 210.8% | 207% | 75.7% | 1.7 µM | 40 |
| 49 µM | COc1ccc(OC(=O)c2nc(C)c(C)nc2C)c(/C=C/C(=O)O)c1 | 59.8% | 48.8% | 46.5% | 43.4% | 79.2% | 62.9% | 45% | 21.7% | 48.6 µM | – |

From ChEMBL document CHEMBL3580595, “Design, synthesis and biological evaluation of novel trimethylpyrazine-2-carbonyloxy-cinnamic acids as potent cardiovascular agents” (Medchemcomm, 2014)
